# Laboratory results published in patent US10107817B2, “Oligopeptide specific to ovarian cancer, polynucleotide for encoding oligopeptide, test kit for detecting ovarian cancer and method for detecting ovarian cancer” (NATIONAL TSING HUA UNIVERSITY, priority 2016, dated 2018).
# Columns and labels:
# [1] = test system: ovarian clear cell carcinoma tissue section; assay: Binding of the FAM-labelled oligopeptide to ovarian cancer tissue sections, fluorescence microscopy; settings: 60 rpm, 60 minutes, room temperature, FIG. 2
# Source text: (§1) In subsequent examples, the oligopeptide of the present disclosure is used to detect whether the sample has the oligopeptide-cancer cell complex. The oligopeptide consisted of the amino acid sequence of SEQ ID NO: 1 is chemically synthesized and modified a green fluorescence (FAM) at N-terminus in subsequent examples.
# (§2) The sample uses in this example is the ovarian cancer tissue including an ovarian serous tumor tissue section, an ovarian mucinous tumor tissue section and an ovarian clear cell carcinoma tissue section. Besides, a normal ovarian tissue section is used as a control. The oligopeptide modified with the green fluorescence is respectively mixed with different groups of the sample at 60 rpm for 60 minutes at room temperature. The samples are washed several times with PBS containing 1% BSA. Then the sample is observed under a fluorescence microscopy, wherein the green fluorescent signal represents that the oligopeptide-cancer cell complex is presented in the sample.
# [2] = test system: ovarian mucinous tumor tissue section; assay: as above; settings: 60 rpm, 60 minutes, room temperature, FIG. 2
# Source text: as §1, §2
# [3] = test system: ovarian serous tumor tissue section; assay: as above; settings: 60 rpm, 60 minutes, room temperature, FIG. 2
# Source text: as §1, §2
# [4] = test system: normal ovarian tissue section; assay: Binding of the FAM-labelled oligopeptide to control tissue section, fluorescence microscopy; settings: 60 rpm, 60 minutes, room temperature, FIG. 2
# Source text: as §1, §2
# OVCAR3 cell = assay: Binding of the FAM-labelled oligopeptide to ovarian cancer cells, fluorescence microscopy; design: species or system human; settings: 12-well plate, 1×10^5 cells/well, 60 rpm, 60 minutes, room temperature, FIG. 3
# Source text: as §1
# (§3) The sample uses in this example is the ovarian cancer cell, wherein the ovarian cancer cell is OVCAR3 cell (a human serous epithelial ovarian cancer cell line). Besides, a normal cervical epithelial cell is used as the control. The OVCAR3 cell and the normal cervical epithelial cell are cultured and stored in Department of Obstetrics and Gynecology of National Cheng Kung University Hospital. The OVCAR3 cell and the normal cervical epithelial cell are respectively seeded in a 12-well plate with 1×10^5 cells/well and then maintained at 37° C. in a humidified atmosphere of 5% CO2 until the cells are adhered in the next day. The oligopeptide modified with the green fluorescence is respectively mixed with different groups of the sample at 60 rpm for 60 minutes at room temperature. The sample is washed several times with the PBS containing 1% BSA. Then the sample is observed under a fluorescence microscopy, wherein the green fluorescent signal represents that the oligopeptide-cancer cell complex is presented in the sample.
# [5] = test system: normal cervical epithelial cell; assay: Binding of the FAM-labelled oligopeptide to control cells, fluorescence microscopy; settings: 12-well plate, 1×10^5 cells/well, 60 rpm, 60 minutes, room temperature, FIG. 3
# Source text: as §1, §3
substance,measurement,setting,value
"oligopeptide of the present disclosure: oligopeptide consisted of the amino acid sequence of SEQ ID NO: 1, chemically synthesized, specific to ovarian cancer (KRLTPLSPDHYD)",green fluorescent signal (oligopeptide-cancer cell complex),[1],green fluorescent signal can be detected
same,green fluorescent signal (oligopeptide-cancer cell complex),[2],green fluorescent signal can be detected
same,green fluorescent signal (oligopeptide-cancer cell complex),[3],green fluorescent signal can be detected
same,green fluorescent signal (oligopeptide-cancer cell complex),[4],no significant green fluorescent signal detected
same,FAM signal (oligopeptide-cancer cell complex),OVCAR3 cell,FAM signal can be detected
same,FAM signal (oligopeptide-cancer cell complex),[5],no significant FAM signal detected
